# Target: T1, rat liver 11β HSD (Rattus norvegicus, UniProt P16232)
# T1 construct: for the 11β HSDs isolated from rat liver; from tissue; host or cells: rat liver
# Assay: rat liver 11β HSD oxidative activity, corticosterone utilization (Lineweaver-Burk kinetics)
# Format: biochemical
# Details: for inhibition of the enzyme: purified rat liver 11β HSD, 1,2,6,7-3H-corticosterone; for Ki: purified rat liver 11β HSD, oxidative activity, NADP+, 1,2,6,7-3H-corticosterone, with regard to the glucocorticoid substrate, read-out: Kis; for mode of inhibition: with regard to the glucocorticoid substrate (corticosterone), Lineweaver-Burk plot, rat liver 11β HSD oxidative activity
# Experimental: Computational analyses were performed using the latest version of MacSpartan Plus and MSI InsightII. Experimental analysis employed the rat enzyme as described (Monder et al., BBA […] (1991) and references therein). Kinetic data were analyzed in Excel and plotted in CricketGraph.
# The structural similarity between GCs like cortisol and the monoterpenes with the conformation of neomenthol (FIG. 1) was confirmed by the computational analysis of their steric and electronic similarities, as summarized in FIGS. 2 and 3. Only neomenthol precisely mimicked the region of GCs around C11 that contains the oxygen atom subjected to the redox reactions mediated by the 11β HSDs. Consequently, only neomenthol should bind to such an enzyme like its physiological substrate, competing with said substrate for the active site of said enzyme. This computation-based prediction was confirmed experimentally, as shown in FIGS. 4 and 5 for the 11β HSDs isolated from rat liver. The purified rat liver 11β HSD, when used in vitro, utilizes NADP+ and oxidizes cortisol and corticosterone in an ordered sequential bireactant mechanism (Monder et al., Biochim. Biophys. Acta 1115:23-29 (1991) and references therein). […] More importantly, the results identified the conformation of neomenthol as a lead for the rational optimization of 11β HSD inhibitors, applicable to both the in vivo oxidizing activity of 11β HSD2 and the in vivo reducing activity of 11β HSD1, as shown in FIG. 6. Using the same computational algorithms that correctly predicted the competitive mode of inhibitory activity for neomenthol, and the lack thereof for isomenthol, molecules were assembled in silico and evaluated for their computed physicochemical characteristics relevant for the desired inhibition of 11β HSD activity. Originating from the lead compounds (FIG. 6), the computational analysis converged on several optimized structures that contained combinations of physicochemical and steric elements prerequisite for 11β HSD inhibition. These structures are identified in FIGS. 7-10. FIG. 7 details for neomenthol the findings obtained with this approach. FIG. 8 details the findings for a representative compound in which, among other modifications, a structure equivalent to the B ring of cortisol has been deleted. FIG. 9 details the findings for a representative compound in which, among other modifications, a ring has been added to the structure equivalent to the D ring of cortisol. FIG. 10 details the findings for a representative compound in which, among other modifications, a structure equivalent to the D ring of cortisol has been deleted. As originally proposed for neomenthol (FIG. 11), these structures are sufficiently isosteric and isoelectronic with cortisol to displace it from its plasma binding proteins, in this way increasing the bioavailable, free cortisol in a living system, e.g. after topical administration to skin only in skin blood vessels.
# T1 sequence (P16232 whole entry): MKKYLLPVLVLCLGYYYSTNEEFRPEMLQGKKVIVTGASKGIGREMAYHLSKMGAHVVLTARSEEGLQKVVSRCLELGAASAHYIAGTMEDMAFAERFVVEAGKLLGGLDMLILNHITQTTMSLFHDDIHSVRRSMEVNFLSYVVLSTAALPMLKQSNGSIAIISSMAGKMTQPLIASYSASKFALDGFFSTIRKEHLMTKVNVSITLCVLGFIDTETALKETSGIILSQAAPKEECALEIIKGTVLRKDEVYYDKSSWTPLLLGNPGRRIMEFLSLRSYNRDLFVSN
Compound,inhibition of the enzyme,Ki,mode of inhibition
"CC(C)[C@H]1CC[C@@H](C)C[C@@H]1O [isomenthol, (1S, 2R, 5R)-isomenthol]",inhibited the enzyme,71 µM,non-competitive
"CC(C)[C@@H]1CC[C@@H](C)C[C@@H]1O [neomenthol, (1S, 2S, 5R)-neomenthol]",inhibited the enzyme,35 µM,competitive
